Measured values taken from patent US6710086B1, “Protected forms of pharmacologically active agents and uses therefor” (Medinox, Inc., priority 2000, dated 2004).

System: adjuvant-induced arthritis
Details: high doses: naproxen 10 mg/kg, conjugate 18 mg/kg, oral daily on days 5-8 and 11-14; day 15

## COc1ccc2cc([C@H](C)C(=O)O)ccc2c1 [Naproxen, (S)-(+)-methoxy-α-methyl-2-naphthaleneacetic acid]
  Reduction of swelling compared to control: approximately 70%
